Measurements published in patent US8785396B2, “Method and composition for treating migraines” (Mannkind Corporation, priority 2007, dated 2014).

Legend:
[1] = Sumatriptan pharmacokinetics in female Sprague Dawley rats; conditions: rat, in vivo, 0.358 mg
ZDF rats = assay: Intraperitoneal glucose tolerance test (IPGTT) in ZDF rats (exendin-4); assay type: in vivo, rat; conditions: subcutaneous injection
Text: After an overnight fast, ZDF rats were given a glucose challenge by intraperitoneal injection (IPGTT).

[2] = test system: patients with Type 2 diabetes; assay: Phase 1 clinical trial of GLP-1/FDKP inhalation powder in fasted Type 2 diabetes patients: serum glucose; assay type: in vivo, human; conditions: 1.5 mg GLP-1 inhaled; attained by the 30 min time point
Experimental: […]. These studies were conducted according to Example 1 and as described herein. […]. No. 11/735,957, which disclosure is incorporated herein by reference. […].
[…]. The serum glucose levels were analyzed for each sample.

[3] = test system: patients diagnosed with type 2 diabetes; assay: Meal challenge study in type 2 diabetes patients: GLP-1 levels, insulin, glucose, gastric emptying; assay type: in vivo, human
Experimental: Experimental Design: The study was divided into two periods and enrolled 20 patients diagnosed with type 2 diabetes ranging in age from 20 to 64 years of age. […] Period 2 was performed after completion of Period 1. […] The results of this study are depicted in FIGS. 18-20.

[4] = test system: healthy adult male subjects; assay: Phase 1a clinical trial: insulin, glucose and glucagon response after inhaled GLP-1; assay type: in vivo, human
Experimental: GLP-1/FDKP inhalation powder was administered using the MedTone® Inhaler device, previously tested. The experiments were designed to identify the safety and tolerability of various doses of GLP-1/FDKP inhalation powder by pulmonary inhalation.
Dropouts were not replaced. These dosages assumed a body mass of 70 kg.

Male ZDF rats = assay: Cumulative food consumption in male ZDF rats (oxyntomodulin); assay type: in vivo, rat; conditions: 30% oxyntomodulin/FDKP powder by pulmonary insufflation, fasted ZDF rats
Experimental: Male ZDF rats (10/group) were assigned to one of four groups.
Rats were allowed to eat after receiving the experimental dose. A predetermined amount of food was given to the rats and the amount of food the rats consumed was measured at various times after the start of the experiment.

Female ZDF rats [5] = assay: Blood glucose in female ZDF rats (PYY); assay type: in vivo, rat; conditions: Group 1: PYY IV
Text: (§1) Pharmacokinetic and pharmacodynamic studies: Female ZDF rats were used in these experiments and divided into 7 groups; five rats were assigned to each group, except for Group 1 which had 3 rats.

Female ZDF rats [6] = assay: Food consumption in female ZDF rats (PYY); assay type: in vivo, rat; conditions: Group 1: 0.6 mg IV
Text: as §1

CNS(=O)(=O)Cc1ccc2[nH]cc(CCN(C)C)c2c1 [Sumatriptan, sumatriptan]
bioavailability ([1]; iv): 100%
bioavailability ([1]; sc): 36.4%

exenatide
time blood glucose was significantly lowered following IPGTT versus air control (ZDF rats): 30 min

glucagon-like peptide 1 [GLP-1]
mean glucose drop [2]: approximately 1 mmol/L
insulin response ([3]; GLP-1 dry powder comprising FDKP, fed and fasted groups): more significant
blood glucose after meal challenge ([3]; GLP-1 dry powder formulation): delayed rise in blood glucose and reduced overall exposure (AUC) to glucose
decrease in plasma glucose in two of the six subjects ([4]; 1.5 mg GLP-1 inhaled): more than 1.5 mol/L
mean fasting plasma glucose 20 min after dosing ([4]; 1.5 mg GLP-1 inhaled, reduced from 85): 70 mg/dL
largest decrease in plasma glucagon ([4]; 1.5 mg dose group): approximately 2.5 pmol/L
time of maximum change in plasma glucagon ([4]; after dosing, inhaled GLP-1): 12 min
peak plasma insulin levels in one subject ([4]; inhaled GLP-1): exceeded 700 pmol/L
peak plasma insulin response in most subjects ([4]; inhaled GLP-1, dose groups 0.05-1.5 mg): 200 to 400 pmol/L

oxyntomodulin
time after dosing with significantly less food consumed than control rats (Male ZDF rats): up to 6 hr

peptide YY(3-36) [PYY]
time after dosing up to which blood glucose level was lower than in the other rats (Female ZDF rats [5]): about 15 min
food consumption (Female ZDF rats [6]): relatively effective in reducing food consumption
